Data set [1] in a line: In vivo pharmacokinetics after intravenous administration to rats. Set-up: species or system male Sprague-Dawley rats. The conditions noted are these: rat, 5 mg/kg intravenous bolus, male Sprague-Dawley rats. The method, then:
The clearance and elimination of peptides can be mediated by multiple processes in vivo, including metabolism and renal elimination.
Test compounds were intravenously (i.v.) administered to male Spraque-Dawley rats (about is six weeks old, n=3 per compound) at 5 mg/kg. Blood samples were collected from jugular vein through implanted in-dwelling catheters (250 pl blood) into labelled polypropylene tubes containing anticoagulant (heparin) at 2 min, 5 min,15 min, 30 min, 1 h, 2 h and 4 h after compound administration and held on wet ice for a maximum of 30 minutes. The blood samples were centrifuged for plasma separation (4 °C, 21100 G, 5 min). Tolbutamide 500ng/ml with 10% TFA in acetonitrile or in MeCN was used as an internal standard solution.
The standard samples were prepared into rat plasma by spiking the matrix into concentrations 2-10 000 ng/ml of the analyte, respectively, and otherwise treated as the samples. To 50 pl aliquots of sample plasma was added 200 pl of internal standard. Samples were mixed (150 rpm, 15 min) and centrifugated (3000 rpm, 15min). The analytical method was optimized for reaction monitoring chromatographic (peak shape & retention) shifts and mass spectrometric properties (ionization efficiency, MS/MS detection). Supernatants were analyzed by UHPLC-TOF mass spectrometry using electrospray ionization.

Data set [2] deals with dopaminergic TH-positive neurons injured with MPP+. In words: Neuroprotective effect on dopaminergic TH-positive neurons injured with MPP+ (primary mesencephalic culture). It is filed as cell-based, rat. The method, then: Neuroprotective effects of compounds 1-26 (SEQ ID NO: 1-26) were tested in an in vitro model in which primary cultures of rat embryonic mesencephalic neurons were stressed with MPP+ , the active metabolite of neurotoxin 1-methyl-4-phenyl-1,2,3,6-tetrahydropyridine (MPTP). MPP+ kills dopaminergic (TH-positive) neurons via a variety of toxic mechanisms, including mitochondrial dysfunction, generation of peroxynitrite, oxidative stress, ER stress and induction of apoptosis.
Culture of mesencephalic neurons. Rat dopaminergic neurons were cultured as described by Visanji et al., 2008. Briefly, the midbrains obtained from 15-day-old rat embryos (Janvier, France) were dissected, and the ventral portion of the mesencephalic flexure, a region of the developing brain rich in dopaminergic neurons, was used for the cell preparations. The midbrain cells were dissociated by trypsinization for 20 min at 37° C. (solution at a final concentration of 0.05% trypsin and 0.02% EDTA). The reaction was stopped by adding Dulbecco's modified Eagle's medium (DMEM) containing DNAase I grade II (0.5 mg/mL) and 10% of fetal calf serum (FCS). Cells were then mechanically dissociated by 3 passages through a 10 ml pipette. Cells were then centrifuged at 180×g for 10 min at +4° C. on a layer of BSA (3.5%) in L15 medium. The cell pellets were re-suspended in a defined culture serum-free medium consisting of Neurobasal (Invitrogen) supplemented with B27 (2%), L-glutamine (2 mM) and 2% of PS solution and 1Ong/ml of Brain-derived neurotrophic factor (BDNF) and 1 ng/mL of Glial-Derived Neurotrophic Factor (GDNF). Viable cells were counted in a Neubauer cytometer using the trypan blue exclusion test. The cells were seeded at a density of 40 000 cells/well in 96 well-plates (pre-coated with poly-L-lysine) and maintained in a humidified incubator at 37° C. in 5% CO2/95% air atmosphere. Half of the medium was changed every 2 days with fresh medium. On 96-wells plates, only 60 wells are used. To avoid any edge effect, the first and last lines and columns were not used for culture and were filled with sterile water.
CDNF as well as linear and macrocyclic compounds […] (SEQ ID NOs: 1-26) were tested. On day 6 of culture, the compounds were dissolved in culture medium and then pre-is incubated with mesencephalic neurons for 4 hours before the MPP+ application. Four hours after the preincubation of the compounds, MPP+ was added to a final concentration of 4 pM, diluted in control medium still in presence of compounds for 48 h.
48 h after intoxication, the cells were fixed by a solution of 4% paraformaldehyde in PBS, pH 7.3 for 20 min at room temperature. The cells were washed twice in PBS, and then permeabilized and non-specific sites were blocked with a solution of PBS containing 0.1% of saponin and 1% FCS for 15 min at room temperature. Next, the cells were incubated with (a) a monoclonal antibody anti-Tyrosine Hydroxylase (TH) produced in mouse at dilution of 1:10000 and with (b) a polyclonal antibody anti-alpha-synuclein (α-syn) antibody produced in rabbit at dilution of 1:400 in PBS containing 1% FCS, 0.1% saponin, for 2 h at room temperature.
48 h after intoxication, the cell culture supernatant was removed, and the cells fixed by a solution of 4% paraformaldehyde in PBS, pH 7.3 for 20 min at room temperature. The cells were washed twice in PBS, and then permeabilized and non-specific sites were blocked with a solution of PBS containing 0.1% of saponin and 1% FCS for 15 min at room temperature. Then, the cells were incubated with a) a monoclonal Anti-Tyrosine Hydroxylase (TH) antibody produced in mouse at dilution of 1:10000 in PBS containing 1% FCS, 0.1% saponin, for 2 hours at room temperature, and b) a polyclonal anti-postsynaptic density protein-95 (PSD-95) antibody produced in rabbit at dilution of 1:200 in PBS containing 1% FCS, 0.1% saponin, for 2 h at room temperature. This antibody stains specifically synapses. […]

In data set [3] the target is GRP78-NBD. In words: Binding to GRP78-NBD Kd (μM). The source says: Table printed on a drawing sheet, FIG. 5B
Head of the field: Binding to GRP78-NBD Kd (μM)
GRP78-NBD is shown in a translucent surface model along with its cartoon trace. The Cys-Cys bond in compound 12 (SEQ ID NO: 12) is shown in sticks.
The binding affinities are obtained by a microscale thermophoresis-based cell-free assay.
GSK2606414 was used to inhibit PERK signaling and KIRA6 to inhibit IRE1alpha signaling. * p<0.05, ** p<0.01, *** p<0.001, **** p<0.0001 one-way ANOVA is test with post-hoc Fisher's LSD test for pairwise comparison vs MPP+ negative control. # p<0.05, ## p<0.01, ### p<0.001, #### p<0.0001 one-way ANOVA test with post-hoc Fisher's LSD test for pairwise comparison between effect of compound alone and its combination with UPR signal inhibitor.
Where the first naming reader finds the target: head: Binding to GRP78-NBD Kd (μM)

Bridge positions count the residues as written; N and C are the ends. Ends that are not written are not given here. Peptide text beside a SMILES is read from it.

In data set [1] (in vivo), `CC[C@H](C)[C@H](NC(=O)[C@H](CCCCN)NC(=O)[C@H](CCCCN)NC(=O)[C@H](CC(C)C)NC(=O)[C@H](CCC(=O)O)NC(=O)[C@H](CCCCN)NC(=O)[C@@H](NC(=O)[C@H](CCCNC(=N)N)NC(=O)[C@H](CC(C)C)NC(=O)[C@H](CCCCN)NC(=O)[C@H](CCCCN)NC(=O)[C@H](CC(C)C)NC(=O)[C@H](CC(=O)O)NC(=O)[C@@H](N)C(C)C)C(C)C)C(=O)N[C@@H](CC(C)C)C(=O)N[C@@H](CC(=O)O)C(=O)N[C@@H](CC(=O)O)C(=O)N[C@@H](Cc1c[nH]c2ccccc12)C(=O)NCC(=O)N[C@@H](CCC(=O)O)C(=O)N[C@H](C(=O)N[C@H]1CSSC[C@@H](C(=O)N[C@@H](C)C(=O)N[C@@H](CCC(=O)O)C(=O)O)NC(=O)CNC(=O)[C@H](CCCCN)NC1=O)[C@@H](C)O` [Compound 3] (H-VDLKKLRVKELKKILDDWGETCKGCAE-OH; disulfide 22-25) showed an AUC(0-inf) of 4150 ng·h/mL, an MRT of 1.07 min, a Vd of 0.02 L/kg and a half-life of 4.52 min. For the same compound, in data set [1] (plasma, read-out: CI), the clearance turned out to be 20.1 mL/min/kg. Turning to “CDNF: full-length cerebral dopamine neurotrophic factor protein (rhCDNF), positive reference in the MPP+ neuroprotection model”, the “number of α-Syn inclusions (alpha-synuclein aggregates) in TH-positive neurons” value in data set [2] (primary rat mesencephalic culture after MPP+ injury) is “reducing accumulation”. For the same compound, in data set [2] (primary rat mesencephalic culture, 4 h preincubation, MPP+ 48 h), the “protection of TH-positive neurons, their neurites and synapses from MPP+ toxicity” value is “neuroprotective”. As to “GEECRACAEKT (disulfide 4-7) [Compound 15]”, in data set [3], the Kd turned out to be 3210 nM. Same read-out and setting: the result for “KSILDDWGETCKGCAE (disulfide 11-14) [Compound 9]” reads 11000 nM. On to “VDLKKLRVKELKKILDDWGETCKGCAE (disulfide 22-25) [Compound 3]”, for which the Kd in data set [3] amounted to 290 nM.

“VDLRKMRVAELKQILHSWGEECRACAE (disulfide 22-25) [Compound 1]”: the Kd in data set [3] was found to be 60 nM. Same read-out and setting: the result for “WGETCKGCAEKS (disulfide 5-8) [Compound 13]” reads 1080 nM.
